In assay [1] the test system is Oocyte. Description: Inhibition of Influenza A Virus M2 proton channel expressed in Xenopus laevis oocytes at 100 uM after 2 mins by two-electrode […] assay. Type of assay: cell-based. On the technique in general: The patch-clamp technique gives a direct electrical read-out from membranes.
A short description of assay [2]: Inhibition of Influenza A Virus M2 proton channel expressed in Xenopus laevis oocytes after 2 mins by two-electrode […] assay. The assay is classed as cell-based. As to conditions: Oocyte.

In assay [1], `NC12CC3CC(CC(C3)C1)C2` yielded an inhibition of 91%.

For the compound `OC12CC3CC(CC(C3)C1)C2`, the inhibition in assay [1] was 85%. Moreover, in assay [2], the IC50 is 20 µM.

Regarding `CC(C)(C)c1ccc(CN)cc1`, the inhibition in assay [1] amounted to 40%.

For `CC1(C)C(N)C1(C)C`, in assay [1], the inhibition is 28%.

Compound `N=C(N)NC12CC3CC(CC(C3)C1)C2` showed an inhibition in assay [1] of 97%. Further, it took 15 µM to reach half-maximal inhibition in assay [2] (IC50).

In turn, `NC1C2CC3CC(C2)CC1C3` (stereo not given) had an inhibition in assay [1] of 92%.

Regarding `OC1C2C3CC4C2C(O)C2C1C3C42` (stereo not given), the inhibition in assay [1] came out at 76%.

As for `N=C(N)NCC12CC3CCC(CC(C3)C1)C2`, the inhibition in assay [1] is 90%.

On to `NNC1CCC2(CCCCC2)CC1`, for which the inhibition in assay [1] was 79%. In assay [2], this compound displayed a half-maximal inhibitory concentration (IC50) of 31 µM.

Regarding `NN1C(=O)CC2(CCCCC2)CC1=O`, the inhibition in assay [1] worked out at 29%.

`NC12CC3CCC(CC(C3)C1)C2` yielded an inhibition in assay [1] of 81%. Further, inhibition in assay [2] was half-maximal at 24 µM (IC50).

`NC(=O)C12CC3CC(CC(C3)C1)C2` came in with an inhibition in assay [1] of 75%.

In assay [1], `NC1C2C3CC4C2C(O)C2C1C3C42` (stereo not given) returned an inhibition of 86%. The concentration for half-maximal inhibition (IC50) in assay [2] was found to be 24 µM.

Take `CC12CC3(O)CC1(C)CC3(O)C2`: the inhibition in assay [1] stood at 40%.

For `NC(CO)C12CC3CC(CC(C3)C1)C2` (stereo not given), the inhibition in assay [1] came to 90%. In addition, the IC50 in assay [2] worked out at 16 µM.

As for `CC1(O)C2CC3CC(C2)CC1C3` (stereo not given), the inhibition in assay [1] is 86%. This compound registered an IC50 in assay [2] of 14 µM.

In assay [1], `C1CCC2(CC1)CCNCC2` had an inhibition of 95%. The compound further showed an IC50 in assay [2] of 1 µM.

Regarding `C1NC2CC3CC1CC(C3)C2`, in assay [1], the inhibition turned out to be 84%.

Consider `OC1CC2C3CCC(C3)C2C1O` (stereo not given), for which, in assay [1], the inhibition is 50%.

With `NC12CC3CC(C1)CC(O)(C3)C2`, the inhibition in assay [1] is 5%.

`N=C(N)C12CC3CC(CC(C3)C1)C2` showed an inhibition in assay [1] of 95%. In assay [2], the IC50 worked out at 4 µM.

As to `OC1C2C3CC4C1C1C2CC3C41` (stereo not given), the inhibition in assay [1] turned out to be 57%.

Take `C1CC2CCC1CNC2`: the inhibition in assay [1] was determined as 75%.

`NOC12CC3CC(CC(C3)C1)C2` displayed an inhibition in assay [1] of 87%.

As to `NC1C2C3CC4C1C1C2CC3C41` (stereo not given), the inhibition in assay [1] amounted to 96%. The IC50 in assay [2] amounted to 8 µM.

The compound `O=C1CC2(CCCCC2)CC(=O)N1` yielded an inhibition in assay [1] of 35%.

In the case of `O=C1C2CC3CC(C2)CC1C3`, in assay [1], the inhibition turned out to be 69%. This compound also came in with an IC50 in assay [2] of 29 µM.

`NC1CCC2(CCCCC2)CC1` came in with an inhibition in assay [1] of 89%.

In assay [1], `C1CC2CC1C1CNCC21` (stereo not given) had an inhibition of 74%.

With `NC1CC2CC1C1CCCC21` (stereo not given), in assay [1], the inhibition came out at 94%. The compound further displayed an IC50 in assay [2] of 9 µM.

`NC1Cc2ccccc2C1`: the inhibition in assay [1] was 6%.

With `C1CC2CC1C1CNC21` (stereo not given), in assay [1], the inhibition stood at 45%.

For the compound `OC1CCC(C2CC3CCC2C3)CC1O` (stereo not given), the inhibition in assay [1] worked out at 80%.

As for `NC12CCC3CC(CC(C3)C1)C2`, the inhibition in assay [1] amounted to 92%. The compound further had an IC50 in assay [2] of 29 µM.

Regarding `N=C(NO)C12CC3CC(CC(C3)C1)C2`, the inhibition in assay [1] stood at 72%.

For the compound `CC(C)(C)CC(C)(C)N`, the inhibition in assay [1] came to 87%. Also, the IC50 in assay [2] was found to be 21 µM.

Consider `O=S(=O)(O)C12CC3CC(CC(C3)C1)C2`, for which, in assay [1], the inhibition was determined as 3%.

The compound `NC12CC3CC(C1)CC(CO)(C3)O2` displayed an inhibition in assay [1] of 13%.

Turning to `NN1CCC2(CCCCC2)CC1`, the inhibition in assay [1] was determined as 96%. Besides, in assay [2], the IC50 worked out at 7 µM.

With `N=C(N)NC(=N)NC12CC3CC(CC(C3)C1)C2`, the inhibition in assay [1] worked out at 70%.

As a reminder, the inhibition is the relative decrease from the control value, in per cent. A low value points to a weak effect. What is called IC50 is the concentration needed to halve the response being measured.

The record behind these values is ChEMBL document CHEMBL2040799, “Exploring the Requirements for the Hydrophobic Scaffold and Polar Amine in inhibitors of M2 from Influenza A Virus” (ACS Med Chem Lett, 2011).
